Among the data in article doi:10.1101/2023.03.31.535182v2 (biorxiv, 2023) are Km values, retold here.

The Km is the substrate concentration at which the rate is half of its maximum.

The assay concerns MsGH13. Kind of assay: UV/Vis release of 4-nitrophenolate at […] nm. To be noted: 50 mM citric acid/phosphate, 150 mM NaCl, pH 6.5, 25 °C. The class given is biochemical, Marinovum sp.

Regarding `O=[N+]([O-])c1ccc(O[C@H]2O[C@H](CO)[C@@H](O)[C@H](O)[C@H]2O)cc1` [PNPGlc], the Michaelis constant (Km) was 950 ± 470 µM.
